Patent publication US11702402B2, “Small molecules that block proteasome-associated ubiquitin receptor RPN13 function and uses thereof” (DANA-FARBER CANCER INSTITUTE, INC., priority 2018, dated 2023)

Key:
[1] = system: MM.1S Len-resistant cells; assay: MM.1S lenalidomide-resistant cell viability; format: cell-based, Human; settings: 72 hours
Source text: The experiment was repeated twice and JQRA concentration was increased (as indicated) at the second time.

RPN13 [2] = biological target: T1, RPN13 (Homo sapiens, UniProt Q16186); assay: Rpn13 immunoblot in ANBL6.BR cells; format: cell-based; design: endogenous in cells; host or cells: MM.1S; MM.1S-CRBN KO; RPMI-8226; ANBL6.BR; settings: ANBL6.BR (bortezomib-resistant); 400 nM; 16 hours
T1 sequence (Q16186 whole entry): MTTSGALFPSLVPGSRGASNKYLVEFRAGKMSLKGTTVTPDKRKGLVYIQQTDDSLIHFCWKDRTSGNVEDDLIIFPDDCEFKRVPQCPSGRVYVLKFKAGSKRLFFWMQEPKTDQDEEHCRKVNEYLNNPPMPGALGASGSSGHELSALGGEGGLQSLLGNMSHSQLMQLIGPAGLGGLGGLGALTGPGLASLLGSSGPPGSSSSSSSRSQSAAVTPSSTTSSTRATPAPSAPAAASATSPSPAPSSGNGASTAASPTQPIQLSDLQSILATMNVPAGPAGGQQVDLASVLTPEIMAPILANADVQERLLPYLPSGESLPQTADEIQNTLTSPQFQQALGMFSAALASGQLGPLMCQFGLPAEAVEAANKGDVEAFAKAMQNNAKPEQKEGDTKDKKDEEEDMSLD
Protocol: (§1) MM.1S cells, which were treated with DMSO control, bortezomib, or WL40 at indicated concentration for 3 hours; protein lysates were analyzed for different proteasome activities (CT-L, chymotrypsin-like; T-L, trypsin-like; C-L, caspase-like). FIG. 20B is a bar graph showing percent proteasome activity after normalization with DMSO control (mean±SD; n=3). Recombinant 20S proteasome was incubated with DMSO, bortezomib, or WL40 for 30 minutes, followed by assessment of the above-noted proteasome activities. FIG. 20C MM.1S cells were pretreated with exemplary proteasome inhibitor MG132 (10 μM) for 1 hour, followed by addition of WL40 (400 nM) for 8 hours. […] Total protein lysates were subjected to immunoblots for Rpn13 and α-tubulin. […] FIG. 20E ANBL6.BR cells were treated with WL40 (400 nM) or RA190 (500 nM) for 16 hours; protein lysates were subjected to immunoblot analysis using anti-Rpn13 or anti-β-actin Abs.
Cellular protein extracts were prepared using RIPA lysis buffer (50 mM Tris-HCl, 150 mM NaCl, 1% NP-40, 0.5% sodium deoxycholate, and 0.1% SDS). […]
Next, the effect of WL40 on additional MM cell lines, including p53-mutated RPMI-8226 cells or bortezomib-resistant ANBL6.BR cells, was evaluated. […]

[3] = system: p53/p21 apoptotic signaling axis; assay: p53/p21 signaling immunoblot; format: cell-based, Human; settings: ANBL6.BR; WL40 (1 μM) versus RA190 (1 μM)
20S proteasome = assay: Proteasome activity assay in lysates of treated MM.1S cells; format: cell-based, Human; settings: cellular extracts of MM.1S cells treated 1 μM or 10 μM for 3 hours
Protocol: as §1
MM.1S cells were treated with WL40 (1 μM or 10 μM) or Bortezomib (1 μM) for 3 hours; cells were then harvested and lysed in lysis buffer, followed by removal of debris by centrifugation. Total protein (25 μg) was analyzed for proteasome activity using 20S proteasome Assay Kit (Calbiochem), as previously described.^33

[4] = system: HCT116 and HCT116-Rpn13KO cell lines; assay: HCT116 and HCT116-Rpn13KO cell viability; format: cell-based; settings: HCT116 versus HCT116-Rpn13KO; 48 hours; Wst-1
Protocol: FIGS. 8A and 8B show HCT116 and HCT116-Rpn13KO cell lines that were treated with WL40 or WL44 at the indicated concentrations for 48 hours. Wst-1 assay was used to test cell viability.
CRISPR-Cas9 genome editing was performed to generate Rpn13-knockout (Rpn13-KO) HCT116 and MM.1S cell lines. Cells were transfected with Rpn13-CRISPR/Cas9-knockout (KO) plasmid (Santa Cruz Biotechnology, Inc., Santa Cruz, Calif., USA) using Lipofectamine 2000 (Thermo Fisher Scientific, Waltham, Mass., USA) or the cell line Nucleofector Kit V (Amaxa Biosystems, Cologne, Germany), respectively. After 48 h incubation, green fluorescent protein (GFP)-positive cells were sorted. Rpn13 KO was confirmed by both protein expression studies and DNA sequencing.

RPN13 [5] = biological target: T1, RPN13; assay: RPN13 AlphaScreen (Rpn13 / biotinylated polyUb recognition); format: binding; settings: RA190 as positive control
Protocol: Assays were performed with minimal modifications from the manufacturer's protocol (PerkinElmer, USA). All reagents were diluted in 50 mM HEPES, 150 mM NaCl, 0.1% w/v BSA, 0.01% w/v Tween20, pH 7.5, and allowed to equilibrate to room temperature prior to addition to plates. After addition of Alpha beads to master solutions, all subsequent steps were performed under low light conditions. A 2× solution of components with final concentrations of RPN13 at 670 nM, Ni-coated Acceptor Bead at 20 μg/ml, and 5 nM biotinylated-poly-Ub K48-linked chains (UCB-230, BostonBiochem, USA) was added in 10 μL to 384-well plates (AlphaPlate-384, PerkinElmer, USA). Plates were spun down at 150×g, and 100 nL of compound in DMSO from stock plates were added by pin transfer using a Janus Workstation (PerkinElmer, USA). The streptavidin-coated donor beads (20 μg/ml final) were added, as with previous the solution, in a 2×, 10 μL volume. Following this addition, plates were sealed with foil to prevent light exposure and evaporation. The plates were spun down again at 150 g. Plates were incubated at room temperature for 1 hour, and then read on an Envision 2104 (PerkinElmer, USA), using the manufacturer's protocol.
Several experiments were performed to confirm the specificity of WL40. […] It was then examined whether the bivalent molecule, WL40, can bind to Rpn13. […]

## Cl.N[C@@H](Cc1ccccc1)C(=O)N1C/C(=C/c2ccc(Cl)c(Cl)c2)C(=O)/C(=C\c2ccc(Cl)c(Cl)c2)C1 [RA190, reference compound]
[1]
  cytotoxicity (percentage of viable cells): more robust MM cytotoxicity

## O=C1CCC(N2C(=O)c3cccc(NCCOCCOCCOCCC(=O)N[C@@H](Cc4ccccc4)C(=O)N4C/C(=C\c5ccc(Cl)c(Cl)c5)C(=O)/C(=C/c5ccc(Cl)c(Cl)c5)C4)c3C2=O)C(=O)N1 (stereo partly drawn) [WL40]
RPN13 [2]
  Rpn13 levels (immunoblot): induced RPN13 degradation
[3]
  induction of p53/p21 signaling: earlier induction of this pathway
20S proteasome
  20S proteasomal activities (chymotrypsin-like, trypsin-like, caspase-like): does not inhibit 20S proteasomal activities
[4]
  RPN13 dependence of cytotoxicity: RPN13-dependent
RPN13 [5]
  Rpn13 binding: binds to Rpn13
